Reference: patent publication US4752612A, “Method and percutaneously administering physiologically active agents using an alcohol adjuvant and a solvent” (Nitto Electrical Industrial Co., Ltd., priority 1986, dated 1988)
Structures can show the parent of a compound that is named as a salt. Where two headings read alike, the source gives them in different places.

Columns and labels:
[1] = In vivo rhesus monkey test, plasma level after topical application; settings: for concentration at 3 h / concentration at 5 h / concentration at 7 h: topical
Method: If desired, an in vivo rhesus monkey test as described below may also be used to determine the effect of the PAEC combinations of the present invention.
Male rhesus monkeys weighing 10-14 Kg each can be used as the subject. An appropriate area of the monkey's chest is shaved 24 hours before drug application.
Drug formulations comprising the PAEC are applied to a certain area of the chest. The monkey is restrained in a chair to prevent it from touching its chest.
Blood samples are taken at appropriate intervals after the application. The heparinized blood is centrifuged, and the plasma removed and stored at -20° C. until analyzed.
In the following Examples 15 and 16, the in vivo monkey regimen earlier described was used to determine the effect of the PAEC combinations of the present invention, the regimen being modified as follows:
Male rhesus monkeys weighting 8 to 13 Kg wee used as the subject and an appropriate area of the monkey's upper back was shaved 24 hours before drug application;
the drug formulations were applied to 49 cm^2 of the upper back of the monkey; and
plasma samples taken at appropriate intervals were analyzed by conventional HPLC.
1 ml of 25% 1-dodecanol and 75% MP containing 200 mg of propanolol was impregnated into a polyester non-woven cloth (49 cm^2; 230 mg) and applied to the upper back area of the monkey.
The application site was occluded with Saran® film.
The procedure of Example 15 was followed except for using Indomethacin, a NSAID, in place of propranolol.

[2] = Text: Rat full thickness skins were used in the diffusion cell method following the method of Michaels, AlChE Journal, 21 [5], 985-996, 1975. The rat skin was mounted in the diffusion cell in a vertical position between the upstream and the downstream compartments; the exposed area of the skin approximated 4.15 cm^2.
The skin was excised from the shaved abdominal site of male albino rats weighing 250~300 g, and washed with normal saline solution after the subcutaneous fat was carefully removed with scissors.
The active agent/PAEC solution of known concentration was added to the upper compartment of the cell, which was exposed to the epithelial side of the skin and a normal saline solution was placed in the lower compartment.
The penetration rate was studied in a thermostated bath at 30° C.
As an alternative, the finite dose technique of Franz, Curr. Probl. Dermatol., Vol. 7, p. 58~68 (Karger, Basel, 1978) can also be followed where the rat skin is mounted horizontally in a diffusion cell apparatus and the exposed area of the skin approximates 0.7 cm^2.
The active agent/PAEC solution of known concentration was added to the upstream compartment to which the epithelial side of the skin was exposed, and a normal saline solution was added to the downstream compartment.
Liquid compositions are prepared by firstly mixing Component A with Component B and then blending the active agent in the mixture. In the case that Component B is a solid at ambient temperature or will not homogenously mix with Component A, 20 wt.% of ethylene glycol monobutyl ether based on the weight of Components A and B can be used as an agent for assisting dissolution.
The flux of the active agent is given in terms of μg/cm^2 /8 hours. Twenty-five volume percent Component A with respect to Component A plus Component B volume was used in the composition along with 2.5 weight percent of the active agent. For purposes of comparison, in certain instances the results for solvents alone and adjuvants alone are given.
A propranolol system was formulated as follows: […] of propranolol was dissolved in 1 ml of 25 volume % dodecanol in N-methyl-2-pyrrolidone (based on total volume) and in 1 ml of ethyl alcohol as a comparison study.
In the following Example 8, in vitro transdermal penetration was again analyzed using rat full thickness skins following the method of Michaels, AIChE Journal, 21, [53], pp. 985-996 (1975), according to the procedure earlier described. The sample volume was 1 ml unless otherwise indicated and flux of the active agent is given in μg/cm^2 /8 hours. All percents are volume percents based on the total volume of the system unless otherwise indicated.

rhesus monkey = assay: Pharmacological (behavioral) effect in animal model after percutaneous administration; format: in vivo; settings: blood level approximately 100 ng/ml plasma

## CC(C)NCC(O)COc1cccc2ccccc12 (stereo not drawn) [Propranolol]
[1]; 1 hr, 200 mg in 1 ml of 25% 1-dodecanol and 75% MP, 49 cm^2 upper back, occluded
  Plasma Level: 0 ng/ml Plasma
[1]; rhesus monkey, plasma, 3 hr, 200 mg in 1 ml of 25% 1-dodecanol and 75% MP, 49 cm^2 upper back, occluded
  concentration at 3 h: 55 ng/mL
[1]; rhesus monkey, plasma, 5 hr, 200 mg in 1 ml of 25% 1-dodecanol and 75% MP, 49 cm^2 upper back, occluded
  concentration at 5 h: 85 ng/mL
[1]; rhesus monkey, plasma, 7 hr, 200 mg in 1 ml of 25% 1-dodecanol and 75% MP, 49 cm^2 upper back, occluded
  concentration at 7 h: 80 ng/mL

## CCN(CC)CCNC(=O)c1cc(Cl)c(N)cc1OC [Metoclopramide HCl]
[2]
  Flux: 3280 μg/cm^2 /8 hrs

## CC(C)Cc1ccc(C(C)C(=O)O)cc1 (stereo not drawn) [Ibuprofen, p-isobutylhydratropic acid<2',4'-isobutylphenyl propionic acid]
[2]; (a) 25 mg + 1 ml of 25% 1-dodecanol and 75% N-methyl pyrrolidone
  flux (Ibuprofen): 307 μg/cm^2 /8 hours
[2]; (b) 25 mg + 1 ml of 25% 1-dodecanol in 75% N-methyl piperidone
  flux (Ibuprofen): 266 μg/cm^2 /8 hours
[2]; (c) 25 mg + 1 ml of 25% 1-dodecanol in 75% N-methyl caprolactum
  flux (Ibuprofen): 148 μg/cm^2 /8 hours

## COc1ccc2c(c1)c(CC(=O)O)c(C)n2C(=O)c1ccc(Cl)cc1 [Indomethacin, 1-(p-chlorobenzoyl)-5-methoxy-2-methylindole-3-acetic acid]
[2]; (a) 25 mg + 1 ml of 25% linalool and 75% MP
  flux (Indomethacin): 98 μg/cm^2 /8 hours
[2]; (b) 25 mg + 1 ml of 25% 1-dodecanol and 75% MP
  flux (Indomethacin): 236 μg/cm^2 /8 hours
[2]; (c) 25 mg + 1 ml of 25% oleyl alcohol and 75% MP
  flux (Indomethacin): 236 μg/cm^2 /8 hours
[1]; rhesus monkey, in vivo, 60 min
  Plasma Level: 0 ng/ml Plasma
[1]; rhesus monkey, in vivo
  concentration at 3 h: 270 ng/mL
  concentration at 5 h: 495 ng/mL
  concentration at 7 h: 336 ng/mL

## COC(=O)C1=C(C)NC(C)=C(C(=O)OC)C1c1ccccc1[N+](=O)[O-] [Nifedipine, 1,4-dihydro-2,6-dimethyl-4-(2-nitrophenyl)-3,5-pyridine dicarboxylic acid dimethyl ester]
[2]; (a) 25 mg + 1 ml of 25% 1-dodecanol and 75% MP
  flux (Nifedipine): 480 μg/cm^2 /8 hours
[2]; (b) 25 mg + 1 ml of 25% oleyl alcohol and 75% MP
  flux (Nifedipine): 394 μg/cm^2 /8 hours
[2]; (c) 25 mg + 1 ml of 25% 2-octyl-1-dodecanol and 75% MP
  flux (Nifedipine): 246 μg/cm^2 /8 hours
[2]; (d) control: 25 mg + 1 ml of MP
  flux (Nifedipine): 30 μg/cm^2 /8 hours

## CCN(CC)CCNC(=O)c1cc(Cl)c(N)cc1OC [Metoclopramide (free base)]
[2]
  Flux: 2694 μg/cm^2 /8 hrs

## CN1C(=O)CN=C(c2ccccc2)c2cc(Cl)ccc21 [Diazepam, 7-Chloro-1,3-dihydro-1-methyl-5-phenyl-2H-1,4-benzodiazepine-2-one]
Rhesus monkey
  pharmacological (behavioral) signs of therapeutic effectiveness: produces pharmacological (behavioral) signs of therapeutic effectiveness
